{
  "source": "ChEMBL document CHEMBL5154761",
  "about": "“Design, synthesis, and evaluation of 9-(pyrimidin-2-yl)-9H-carbazole derivatives disrupting mitochondrial homeostasis in human lung adenocarcinoma” (Eur J Med Chem, 2022)",
  "key": {"[1]": {"assay": "Toxicity in BALB/c mouse xenografted with human A549 cells assessed as effect on body weight at 0.4 to 2 mg/kg, ip administered once daily for 14 days and measured every day", "type": "organism-based", "details": "in vivo, 336 h, dose 0.4-2 mg/kg, time 14 day"}, "[2]": {"tested_on": "A549", "assay": "Induction of mitochondrial membrane potential loss in human A549 cells assessed as reduction in ATP levels at 1 to 2 uM incubated for 12 hrs in presence of oligomycin/FCCP/antimycin A /rotenone by seahorse XFe24 flux analyzer", "type": "functional, cell-based", "details": "dose 1-2 µM"}, "[3]": {"tested_on": "A549", "assay": "Cytotoxicity against human A549 cells assessed as cell growth inhibition at 10 uM incubated for 48 hrs by MTT assay relative to control", "type": "functional"}, "[4]": {"tested_on": "A549", "assay": "Induction of apoptosis in human A549 cells assessed as decrease in Bcl-2 protein expression at 0.5 to 1 uM measured after 48 hrs by Western blot assay", "type": "functional, cell-based", "details": "dose 0.5-1 µM"}, "[5]": {"tested_on": "A549", "assay": "Induction of apoptosis in human A549 cells assessed as increase in cleaved caspase 3 protein expression at 0.5 to 1 uM measured after 48 hrs by Western blot assay", "type": "functional, cell-based", "details": "dose 0.5-1 µM"}, "[6]": {"tested_on": "A549", "assay": "Induction of DNA damage in human A549 cells assessed as upregulation of gamma H2AX incubated for 48 hrs by Western blot analysis", "type": "functional, cell-based", "details": "dose <= 1.0 µM, DDE = dose-dependent effect"}, "[7]": {"tested_on": "A549", "assay": "Induction of morphological changes in human A549 cells assessed as swollen microstructure of mitochondria by transmission electron microscopy", "type": "functional, cell-based"}, "[8]": {"tested_on": "A549", "assay": "Induction of cell cycle arrest in human A549 cells assessed as accumulation at G2/M phase incubated for 48 hrs by PI staining based flow cytometry analysis", "type": "functional", "details": "dose <= 1.0 µM, DDE = dose-dependent effect"}, "[9]": {"tested_on": "A549", "assay": "Induction of apoptosis in human A549 cells assessed as increase in P53 protein expression at 0.5 to 1 uM measured after 48 hrs by Western blot assay", "type": "functional, cell-based", "details": "dose 0.5-1 µM"}, "[10]": {"tested_on": "A549", "assay": "Cytotoxicity against human A549 cells assessed as cell growth inhibition incubated for 48 hrs by MTT assay", "type": "functional, cell-based", "details": "A549, 48 h"}, "[11]": {"tested_on": "A549", "assay": "Induction of apoptosis in human A549 cells assessed as increase in cleaved caspase 7 protein expression at 0.5 to 1 uM measured after 48 hrs by Western blot assay", "type": "functional, cell-based", "details": "dose 0.5-1 µM"}, "[12]": {"tested_on": "A549", "assay": "Induction of apoptosis in human A549 cells assessed as late apoptotic cells at 1 uM incubated for 48 hrs by Annexin V-FITC/propidium iodide staining based flow cytometry analysis (reference value: 1.00%)", "type": "functional"}, "[13]": {"tested_on": "A549", "assay": "Induction of cell cycle arrest in human A549 cells assessed as accumulation at G2/M phase at 1 uM incubated for 48 hrs by PI staining based flow cytometry analysis (reference value: 18.14)", "type": "functional"}, "[14]": {"tested_on": "A549", "assay": "Inhibition of colony formation in human A549 cells at 2 uM incubated for 48 hrs followed by culture medium replacement for every 72 hrs and measured after 14 days by crystal violet staining based analysis relative to control", "type": "functional", "parameters": "scale not given: the % may be the effect or the level left", "details": "time 14 day"}, "[15]": {"tested_on": "A549", "assay": "Induction of cell cycle arrest in human A549 cells assessed as accumulation at Go/G1 phase at 1 uM incubated for 48 hrs by PI staining based flow cytometry analysis (reference value: 62.45)", "type": "functional"}, "[16]": {"tested_on": "A549", "assay": "Antiproliferative activity against human A549 cells at >1.35 uM incubated for 48 hrs by RTCA analysis", "type": "functional, cell-based"}, "[17]": {"tested_on": "A549", "assay": "Induction of apoptosis in human A549 cells assessed as upregulation of caspase 9 protein expression at 0.5 to 1 uM measured after 48 hrs by Western blot assay", "type": "functional, cell-based", "details": "dose 0.5-1 µM"}, "[18]": {"tested_on": "A549", "assay": "Antitumor activity against human A549 cells xenografted in BALB/c nude mouse assessed as necrotic cells at 2 mg/kg, ip administered once daily for 14 days by H and E staining", "type": "functional, organism-based", "details": "time 14.0 day"}, "[19]": {"tested_on": "A549", "assay": "Induction of cell cycle arrest in human A549 cells assessed as accumulation at S phase at 0.5 uM incubated for 48 hrs by PI staining based flow cytometry analysis (reference value: 12.85%)", "type": "functional"}, "[20]": {"tested_on": "A549", "assay": "Induction of apoptosis in human A549 cells assessed as decrease in caspase 7 protein expression at 0.5 to 1 uM measured after 48 hrs by Western blot assay", "type": "functional, cell-based", "details": "dose 0.5-1 µM"}, "[21]": {"tested_on": "A549", "assay": "Inhibition of mitochondrial respiration in human A549 cells assessed as decrease in basal respiration at 2 uM in presence of oligomycin/FCCP/antimycin A /rotenone measured upto 75 mins by seahorse XFe24 flux analyzer", "type": "functional, cell-based"}, "[22]": {"tested_on": "A549", "assay": "Antitumor activity against human A549 cells xenografted in BALB/c nude mouse assessed as reduction in tumor size at 2 mg/kg, ip administered once daily for 14 days and measured every day (reference value: 2100 mm3)", "type": "functional", "details": "time 14 day"}, "[23]": {"tested_on": "A549", "assay": "Induction of apoptosis in human A549 cells assessed as viable cells at 1 uM incubated for 48 hrs by Annexin V-FITC/propidium iodide staining based flow cytometry analysis (reference value: 97.3%)", "type": "functional", "details": "read-out: Activity"}, "[24]": {"tested_on": "A549", "assay": "Induction of morphological changes in human A549 cells assessed as vacuolated microstructure of mitochondria by transmission electron microscopy", "type": "functional, cell-based"}, "[25]": {"tested_on": "A549", "assay": "Inhibition of mitochondrial membrane potential in human A549 cells by JC-1 staining based high-content screening method", "type": "functional, cell-based", "details": "dose 0.5-2 µM, DDE = dose-dependent effect"}, "[26]": {"assay": "Antiproliferative activity against rat NRK-52E cells assessed as cell growth inhibition incubated for 48 hrs by MTT assay", "type": "toxicity, cell-based"}, "[27]": {"tested_on": "NRK-52E", "assay": "Antiproliferative activity against rat NRK-52E cells at upto 10.75 uM incubated for 48 hrs by RTCA analysis", "type": "toxicity, cell-based"}, "[28]": {"tested_on": "A549", "assay": "Inhibition of colony formation in human A549 cells incubated for 48 hrs followed by culture medium replacement for every 72 hrs and measured after 7 days by crystal violet staining based analysis", "type": "functional, cell-based", "details": "dose 1-2 µM, time 7.0 day, DDE = dose-dependent effect"}, "[29]": {"tested_on": "A549", "assay": "Induction of cell cycle arrest in human A549 cells assessed as decrease in cyclin D1 expression upto 1 uM incubated for 48 hrs by Western blot analysis", "type": "functional, cell-based"}, "[30]": {"tested_on": "A549", "assay": "Induction of apoptosis in human A549 cells assessed as viable cells at 0.5 uM incubated for 48 hrs by Annexin V-FITC/propidium iodide staining based flow cytometry analysis (reference value: 97.3%)", "type": "functional", "details": "read-out: Activity"}, "[31]": {"tested_on": "A549", "assay": "Induction of apoptosis in human A549 cells assessed as increase in cleaved PARP protein expression at 0.5 to 1 uM measured after 48 hrs by Western blot assay", "type": "functional, cell-based", "details": "dose 0.5-1 µM"}, "[32]": {"tested_on": "A549", "assay": "Induction of apoptosis in human A549 cells assessed as increase in caspase 3 protein expression at 0.5 to 1 uM measured after 48 hrs by Western blot assay", "type": "functional, cell-based", "details": "dose 0.5-1 µM"}, "[33]": {"tested_on": "A549", "assay": "Induction of apoptosis in human A549 cells assessed as early apoptotic cells at 0.5 uM incubated for 48 hrs by Annexin V-FITC/propidium iodide staining based flow cytometry analysis (reference value: 1.46%)", "type": "functional"}, "[34]": {"tested_on": "A549", "assay": "Induction of apoptosis in human A549 cells assessed as increase in Bax protein expression at 0.5 to 1 uM measured after 48 hrs by Western blot assay", "type": "functional, cell-based", "details": "dose 0.5-1 µM"}, "[35]": {"tested_on": "A549", "assay": "Induction of cell cycle arrest in human A549 cells assessed as accumulation at S phase at 1 uM incubated for 48 hrs by PI staining based flow cytometry analysis (reference value: 12.85%)", "type": "functional"}, "[36]": {"tested_on": "A549", "assay": "Induction of apoptosis in human A549 cells assessed as necrotic cells at 0.5 uM incubated for 48 hrs by Annexin V-FITC/propidium iodide staining based flow cytometry analysis (reference value: 0.30%)", "type": "functional"}},
  "note": "The source made the active and inactive calls. The rule behind the calls is not given here.",
  "data": [
    {"smiles": "O=C(c1ccc2c(c1)OCO2)c1cccc2c3ccccc3n(-c3ncccn3)c12", "values": [
      {"measurement": "Activity", "setting": "[1]", "result": "Non-Toxic"},
      {"measurement": "Activity", "setting": "[2]", "result": "Active"},
      {"measurement": "inhibition at 10 µM", "setting": "[3]", "result": 78.6, "unit": "%"},
      {"measurement": "Activity", "setting": "[4]", "result": "Active"},
      {"measurement": "Activity", "setting": "[5]", "result": "Active"},
      {"measurement": "Activity", "setting": "[6]", "result": "Dde"},
      {"measurement": "Activity", "setting": "[7]", "result": "Active"},
      {"measurement": "Activity", "setting": "[8]", "result": "Dde"},
      {"measurement": "Activity", "setting": "[9]", "result": "Active"},
      {"measurement": "IC50", "setting": "[10]", "result": 0.82, "unit": "µM"},
      {"measurement": "Activity", "setting": "[11]", "result": "Active"},
      {"measurement": "Activity", "setting": "[12]", "result": 6.98, "unit": "%"},
      {"measurement": "Activity", "setting": "[13]", "result": 65.62, "unit": "%"},
      {"measurement": "Activity", "setting": "[14]", "result": 69, "unit": "%"},
      {"measurement": "Activity", "setting": "[15]", "result": 29.76, "unit": "%"},
      {"measurement": "Activity", "setting": "[16]", "result": "Active"},
      {"measurement": "Activity", "setting": "[17]", "result": "Active"},
      {"measurement": "Activity", "setting": "[18]", "result": "Active"},
      {"measurement": "Activity", "setting": "[19]", "result": 13.84, "unit": "%"},
      {"measurement": "Activity", "setting": "[20]", "result": "Active"},
      {"measurement": "inhibition", "setting": "[21]", "result": "Active"},
      {"measurement": "Activity", "setting": "[22]", "result": 1255, "unit": "mm3"},
      {"measurement": "viability at 1 µM", "setting": "[23]", "result": 78.9, "unit": "%"},
      {"measurement": "Activity", "setting": "[24]", "result": "Active"},
      {"measurement": "inhibition", "setting": "[25]", "result": "Dde"},
      {"measurement": "IC50 at 48 h", "setting": "[26]", "result": 1.25, "unit": "µM"},
      {"measurement": "Activity", "setting": "[27]", "result": "Non-Toxic"},
      {"measurement": "inhibition", "setting": "[28]", "result": "Dde"},
      {"measurement": "Activity", "setting": "[29]", "result": "Active"},
      {"measurement": "viability at 0.5 µM", "setting": "[30]", "result": 93.4, "unit": "%"},
      {"measurement": "Activity", "setting": "[31]", "result": "Active"},
      {"measurement": "Activity", "setting": "[32]", "result": "Active"},
      {"measurement": "Activity", "setting": "[33]", "result": 2.71, "unit": "%"},
      {"measurement": "Activity", "setting": "[34]", "result": "Active"},
      {"measurement": "Activity", "setting": "[35]", "result": 14.11, "unit": "%"},
      {"measurement": "Activity", "setting": "[36]", "result": 1.74, "unit": "%"}
    ]}
  ]
}
